Data set [1] concerns PANC-1. Briefly: 14C-fucose binding to cells. Conditions: 14C-fucose 0-200 nM, 4° C., 1 hr. How it is done: (§1) In a 12-well culture plate, 1×10^5 cells were seeded and cultured overnight, and ^14C-fucose (specific activity: 55 mCi/mmol) diluted with BSA-PBS at a concentration of 0-200 nM was added to the cells and cultured at 4° C. for 1 hr. The cells were washed with cold BSA-PBS, lysed by 1% Triton X100/PBS-0.25% trypsin, and the radioactivity of the ^14C-fucose bound to the cell membrane was measured (FIGS. 2 and 3).

The test system of data set [2] is AsPC-1. Briefly: 14C-fucose binding to cells. On the procedure: as §1
In another experiment, in a 12-well culture plate, 2×10^5 cells were seeded and cultured overnight, 10 nmol of ^14C-fucose (specific activity: 55 mCi/mmol) were added to the cells either singly or together with 1 pmol of fucose, and cultured at 4° C. for 1, 3, or 24 hr. The cells under each condition were washed with cold BSA-PBS, lysed by 1% Triton X100/PBS-0.25% trypsin, and the radioactivity of the ^14C-fucose was measured (FIG. 4).

For data set [3] the following is noted: cited from earlier work.
Data set [4] has as its system AsPC-1 cells. Briefly: Impact of excessive mannose on transfection efficiency of fucosylated liposomes (flow cytometry). Format: cell-based. Conditions: excessive amount of mannose. How it is done: Mannose is phosphorylated to mannose-6-phosphate by hexokinase, then converted to fructose-6 phosphate that is used in the glycolysis. However, 90% of the mannose taken into the body is excreted unchanged into urine within 30-60 min, and 99% of the remaining mannose is excreted within 8 hr.

A short description of data set [5]: Hematologic/biochemical analyses and adverse effects during the treatment period. In kind it is in vivo, mouse. On the procedure: In the preparation of subcutaneous model, AsPC-1 cells (2×10^6 cells) were seeded on the back side of a mouse (4-6 weeks old). Bioluminescence was measured from 0 to 4 days after injection, and the mice were randomly divided into multiple groups before starting the treatment. In vivo optical imaging was performed using Xenogen-IVIS-cooled […] optical system (Xenogen-IVIS). Bound CDD (such as CDDP in fucosylated liposomes) or free CDDP was in a dose of 2 mg/kg for each administration. Injection was performed twice in the first week, then twice in the second and third weeks. All the mice used […], sacrificed on the next day of the final injection prior to the final measurement of bioluminescence.
Samples were collected from mouse orbital venous plexus. In the table, WBC represents white blood cell count, RBC represents red blood cell, count, Hb represents hemoglobin concentration, PLT represents Platelet count, AST represents aspartate aminotransferase concentration, […], Bil represents bilirubin concentration, BS represents blood glucose, Cr represents creatinine concentration.
In pancreatic cancer model mice (AsPC-1), effects of suppression of tumor growth by CDDP, CDDP-encapsulated liposomes (F0), and CDDP-encapsulated liposomes (F50) were compared (FIG. 20). […] Tumor volumes were measured at 4, 8, 11, 15, 18 and 22 days after the transplant.

As to `C[C@H](O)[C@@H](O)[C@@H](O)[C@H](O)C=O` [fucose, L-fucose], the “binding of fucose to cells” value in data set [1] is “binds to AsPC-1 and PANC-1 via a receptor-like mechanism”; in data set [2] (14C-fucose 0-200 nM, 4° C., 1 hr), “binds to AsPC-1 and PANC-1 via a receptor-like mechanism”. For the same compound, the “binding of 14C-fucose in competition with non-labeled fucose” value in data set [2] (4° C. for 1, 3, or 24 hr) is reported as “inhibited by non-labeled fucose”. For the same compound, the “affinity of fucose binding” value in data set [2] (AsPC-1 compared with PANC-1) is “affinity is higher in the fucosylated sugar chain high-producing cell line AsPC-1”.

Take `O=C[C@@H](O)[C@@H](O)[C@H](O)[C@H](O)CO` [mannose, D-mannose]: in data set [3] (within 30-60 min), the “mannose taken into the body excreted unchanged into urine” value is on record as 90%. For the same compound, the remaining mannose excreted in data set [3] (within 8 hr) is 99%. Also, the “impact on the transfection efficiency of fucosylated liposomes” value in data set [4] is listed as “no apparent impact was observed”. Also, in data set [5] (1 mg of mannose for a mouse), the adverse effect entry was “no apparent adverse effect was observed”. In data set [5] (treatment period), the “adverse effects (as shown in Table 5)” value is on record as “does not have any adverse effects”.

(Values after US9757462B2, “Combined pharmaceutical preparation” (Sapporo Medical University, priority 2010, dated 2017).)
